From patent US10632125B2, “MTH1 inhibitors for treatment of inflammatory and autoimmune conditions” (THOMAS HELLEDAYS STIFTELSE FÖR MEDICINSK FORSKNING, priority 2014, dated 2020)
Read-outs that look alike come from different tables or passages of the source.

Target: MTH1 (Homo sapiens, UniProt P36639)
Assay: MTH1 enzymatic assay (malachite green, coupled to pyrophosphatase)
Format: biochemical
[1] = dGTP 100 μM, MTH1 6 nM, 96- or 384-well format, read-out: IC50

Compound | IC50 [1] [nM] | IC50 [nM]
Cc1cccc(-c2cc(NCCNS(=O)(=O)c3ccc(S(C)(=O)=O)cc3)nc(N)n2)c1C [Example 401, N-(2-{[2-Amino-6-(2,3-dimethylphenyl)pyrimidin-4-yl]amino}ethyl)-4-methanesulfonylbenzene-1-sulfonamide] | < 200 | 
Cc1nc(CCNc2cc(-c3cccc(Cl)c3C)nc(N)n2)n[nH]1 [Example 412, 6-(3-chloro-2-methylphenyl)-4-N-[2-(5-methyl-1H-1,2,4-triazol-3-yl)ethyl]pyrimidine-2,4-diamine] | < 200 | 
Cc1cccc(-c2cc(NC3(Cc4ccc(Cl)cc4)CC3)nc(N)n2)c1C [Example 417, 4-N-{1-[(4-Chlorophenyl)methyl]cyclopropyl}-6-(2,3-dimethylphenyl)pyrimidine-2,4-diamine] | < 200 | 
[2H]C([2H])([2H])Nc1cc(-c2cccc(Cl)c2Cl)nc(N)n1 [Example 421, 6-(2,3-dichlorophenyl)-4-N-(^2H3)methylpyrimidine-2,4-diamine] |  | < 200
Cc1cc(-c2cc(NCCc3ccc(S(N)(=O)=O)cc3)nc(N)n2)ccc1F [Example 435, 4-(2-{[2-amino-6-(4-fluoro-3-methylphenyl)pyrimidin-4-yl]amino}ethyl)benzene-1-sulfonamide] | < 200 | 
Cc1c(C#N)cccc1-c1cc(NC2CC2)nc(N)n1 [Example 437, 3-[2-amino-6-(cyclopropylamino)pyrimidin-4-yl]-2-methylbenzonitrile] | < 200 | 
C#CCNc1cc(-c2cccc(Cl)c2Cl)nc(N)n1 [Example 438, 6-(2,3-dichlorophenyl)-4-N-(prop-2-yn-1-yl)pyrimidine-2,4-diamine] | < 200 | 
Cc1ccc(NCCNc2cc(-c3cccc(C)c3C)nc(N)n2)cc1F [Example 448, 6-(2,3-dimethylphenyl)-4-N-{2-[(3-fluoro-4-methylphenyl)amino]ethyl}pyrimidine-2,4-diamine] | < 200 | 
Cc1cccc(-c2cc(NCCNc3ccc(Cl)c(Cl)c3)nc(N)n2)c1C [Example 449, 4-N-{2-[(3,4-dichlorophenyl)amino]ethyl}-6-(2,3-dimethylphenyl)pyrimidine-2,4-diamine] | < 200 | 
Cc1cccc(-c2cc(NCCNc3ccc(Cl)cn3)nc(N)n2)c1C [Example 450, 4-N-{2-[(5-chloropyridin-2-yl)amino]ethyl}-6-(2,3-dimethylphenyl)pyrimidine-2,4-diamine] | < 200 | 
Cc1cccc(-c2cc(NCCNc3ccc(S(N)(=O)=O)cc3)nc(N)n2)c1C [Example 452, 4-[(2-{[2-amino-6-(2,3-dimethylphenyl)pyrimidin-4-yl]amino}ethyl)amino]benzene-1-sulfonamide] | < 200 | 
Cc1c(Cl)cccc1-c1cc(NCCc2ccc(Cl)cc2)nc(N)n1 [Example 461, 6-(3-chloro-2-methylphenyl)-4-N-[2-(4-chlorophenyl)ethyl]pyrimidine-2,4-diamine] | < 200 | 
CNc1cc(-c2ccsc2)nc(N)n1 [Example 463, 4-N-methyl-6-(thiophen-3-yl)pyrimidine-2,4-diamine] | < 200 | 
CNc1cc(-c2cc(C)cs2)nc(N)n1 [Example 464, 4-N-methyl-6-(4-methylthiophen-2-yl)pyrimidine-2,4-diamine] | < 200 | 
Nc1nc(NCCNc2ccc(Br)cn2)cc(-c2cccc(Cl)c2Cl)n1 [Example 466, 4-N-{2-[(5-bromopyridin-2-yl)amino]ethyl}-6-(2,3-dichlorophenyl)pyrimidine-2,4-diamine] | < 200 | 
CNc1cc(-c2cc[nH]c2)nc(N)n1 [Example 468, 4-N-methyl-6-(1H-pyrrol-3-yl)pyrimidine-2,4-diamine] | < 200 | 
COCC(=O)NCCCCNc1cc(-c2cccc(Cl)c2Cl)nc(N)n1 [Example 469, N-(4-{[2-amino-6-(2,3-dichlorophenyl)pyrimidin-4-yl]amino}butyl)-2-methoxyacetamide] | < 200 | 
Nc1nc(NCCCCNC(=O)C(F)(F)F)cc(-c2cccc(Cl)c2Cl)n1 [Example 470, N-(4-{[2-amino-6-(2,3-dichlorophenyl)pyrimidin-4-yl]amino}butyl)-2,2,2-trifluoroacetamide] | < 200 | 
CS(=O)(=O)c1ccc(C(=O)NCCCCNc2cc(-c3cccc(Cl)c3Cl)nc(N)n2)cc1 [Example 471, N-(4-{[2-amino-6-(2,3-dichlorophenyl)pyrimidin-4-yl]amino}butyl)-4-methanesulfonylbenzamide] | < 200 | 
Nc1nc(NCCCCNC(=O)c2ccc(Cl)c(Cl)c2)cc(-c2cccc(Cl)c2Cl)n1 [Example 473, N-(4-{[2-amino-6-(2,3-dichlorophenyl)pyrimidin-4-yl]amino}butyl)-3,4-dichlorobenzamide] | < 200 | 
CS(=O)(=O)c1ccc(S(=O)(=O)NCCCCNc2cc(-c3cccc(Cl)c3Cl)nc(N)n2)cc1 [Example 475, N-(4-{[2-amino-6-(2,3-dichlorophenyl)pyrimidin-4-yl]amino}butyl)-4-methanesulfonylbenzene-1-sulfonamide] | < 200 | 
CNc1cc(-c2ccoc2C)nc(N)n1 [Example 478, 4-N-methyl-6-(2-methylfuran-3-yl)pyrimidine-2,4-diamine] | < 200 | 
CNc1cc(-c2ccc(CN3CCCC3)s2)nc(N)n1 [Example 479, 4-N-methyl-6-[5-(pyrrolidin-1-ylmethyl)thiophen-2-yl]pyrimidine-2,4-diamine] | < 200 | 
Cc1c(Cl)cccc1-c1cc(NC2CC2)nc(N)n1 [Example 482, 6-(3-chloro-2-methylphenyl)-4-N-cyclopropylpyrimidine-2,4-diamine] | < 200 | 
Cc1cccc(-c2cc(NCCF)nc(N)n2)c1C [Example 484, 6-(2,3-dimethylphenyl)-4-N-(2-fluoroethyl)pyrimidine-2,4-diamine] | < 200 | 
CNc1cc(-c2cnn(CCC(N)=O)c2)nc(N)n1 [Example 487, 3-{4-[2-amino-6-(methylamino)pyrimidin-4-yl]-1H-pyrazol-1-yl}propanamide] | < 200 | 
Cc1cccc(-c2cc(NCCNc3cnccn3)nc(N)n2)c1C [Example 500, 6-(2,3-dimethylphenyl)-4-N-{2-[(pyrazin-2-yl)amino]ethyl}pyrimidine-2,4-diamine] | < 200 | 
Cc1cccc(-c2cc(NCCNc3cc(Cl)ncn3)nc(N)n2)c1C [Example 501, 4-N-{2-[(6-chloropyrimidin-4-yl)amino]ethyl}-6-(2,3-dimethylphenyl)pyrimidine-2,4-diamine] | < 200 | 

The remaining lines, values ahead:

IC50 [1] [nM] | IC50 [nM] | Compound
< 200 |  | Cc1c(Cl)cccc1-c1cc(NCCc2ccc(S(=O)(=O)N(C)C)cc2)nc(N)n1 [Example 414, 4-(2-{[2-amino-6-(3-chloro-2-methylphenyl)pyrimidin-4-yl]amino}ethyl)-N,N-dimethylbenzene-1-sulfonamide]
< 200 |  | Cc1c(F)ccc(-c2cc(NCCc3ccc(S(N)(=O)=O)cc3)nc(N)n2)c1C [Example 425, 4-(2-{[2-amino-6-(4-fluoro-2,3-dimethylphenyl)pyrimidin-4-yl]amino}ethyl)benzene-1-sulfonamide]
< 200 |  | Cc1ccc(Cl)cc1-c1cc(NCCc2ccc(S(N)(=O)=O)cc2)nc(N)n1 [Example 427, 4-(2-{[2-amino-6-(5-chloro-2-methylphenyl)pyrimidin-4-yl]amino}ethyl)benzene-1-sulfonamide]
< 200 |  | Cc1c(-c2cc(NCCc3ccc(S(C)(=O)=O)cc3)nc(N)n2)ccc(Cl)c1Cl [Example 431, 6-(3,4-dichloro-2-methylphenyl)-4-N-[2-(4-methanesulfonylphenyl)ethyl]pyrimidine-2,4-diamine]
< 200 |  | Nc1nc(NCCc2ccc(S(N)(=O)=O)cc2)cc(-c2ccc(F)cc2Cl)n1 [Example 433, 4-(2-{[2-amino-6-(2-chloro-4-fluorophenyl)pyrimidin-4-yl]amino}ethyl)benzene-1-sulfonamide]
< 200 |  | Cc1cccc(-c2cc(NCCc3c(C)n[nH]c3C)nc(N)n2)c1C [Example 440, 4-N-[2-(3,5-dimethyl-1H-pyrazol-4-yl)ethyl]-6-(2,3-dimethylphenyl)pyrimidine-2,4-diamine]
< 200 |  | Cc1cccc(-c2cc(NCCNc3ccc(Cl)nn3)nc(N)n2)c1C [Example 441, 4-N-{2-[(6-chloropyridazin-3-yl)amino]ethyl}-6-(2,3-dimethylphenyl)pyrimidine-2,4-diamine]
< 200 |  | Cc1cccc(-c2cc(NCCNc3cc(C#N)ccn3)nc(N)n2)c1C [Example 442, 2-[(2-{[2-amino-6-(2,3-dimethylphenyl)pyrimidin-4-yl]amino}ethyl)amino]pyridine-4-carbonitrile]
< 200 |  | CNc1cc(-c2ccnn2C)nc(N)n1 [Example 465, 4-N-methyl-6-(1-methyl-1H-pyrazol-5-yl)pyrimidine-2,4-diamine]
< 200 |  | Nc1nc(NCCCCNC(=O)c2ccno2)cc(-c2cccc(Cl)c2Cl)n1 [Example 472, N-(4-{[2-amino-6-(2,3-dichlorophenyl)pyrimidin-4-yl]amino}butyl)-1,2-oxazole-5-carboxamide]
< 200 |  | CC(C)(C)C(=O)NCCCCNc1cc(-c2cccc(Cl)c2Cl)nc(N)n1 [Example 474, N-(4-{[2-amino-6-(2,3-dichlorophenyl)pyrimidin-4-yl]amino}butyl)-2,2-dimethylpropanamide]
< 200 |  | Nc1nc(NCCc2ccc(Cl)cc2)cc(-c2ccccc2CO)n1 [Example 481, [2-(2-amino-6-{[2-(4-chlorophenyl)ethyl]amino}pyrimidin-4-yl)phenyl]methanol]
< 200 |  | Cc1c(Cl)cccc1-c1cc(NCCF)nc(N)n1 [Example 483, 6-(3-chloro-2-methylphenyl)-4-N-(2-fluoroethyl)pyrimidine-2,4-diamine]
< 200 |  | COc1cc(C)c(NCCNc2cc(-c3cccc(C)c3C)nc(N)n2)cn1 [Example 490, 6-(2,3-dimethylphenyl)-4-N-{2-[(6-methoxy-4-methylpyridin-3-yl)amino]ethyl}pyrimidine-2,4-diamine]
< 200 |  | NC(=O)COc1cccc(-c2cc(NCCc3ccc(Cl)cc3)nc(N)n2)c1 [Example 498, 2-[3-(2-amino-6-{[2-(4-chlorophenyl)ethyl]amino}pyrimidin-4-yl)phenoxy]acetamide]
